Results from PMC8955525 (2022).

How the values were obtained:
[1] = system: FM1 r(CUG)10 (FM1 CUG × 10, r10FAM), annealed (RNA, repeat, fluorescein (fam) covalently incorporated between C13 and U14 (5th CUG repeat, hairpin loop)) CUGCUGCUGCUGCUGCUGCUGCUGCUGCUG; assay: UV melting, 260 nm; settings: 100 mM NaCl; 10 mM sodium phosphate, pH 7.0; 1.5 µM RNA; L/M = 1; Tm 55.8 to 57.4 °C
[2] = system: native r(CUG)10 (r10) (RNA, repeat) CUGCUGCUGCUGCUGCUGCUGCUGCUGCUG; assay: UV melting, 260 nm; settings: 100 mM NaCl, 10 mM sodium phosphate, pH 7.0, 1.5 µM RNA, L/M = 1, Tm 55.8 to 57.4 °C buffer, Tm 57.5 (L/M 0), 58.7 (L/M 1), 60.7 °C (L/M 16)
[3] = system: native r(CUG)7 (r7) (RNA, repeat) CUGCUGCUGCUGCUGCUGCUG; assay: UV melting, 260 nm; settings: 100 mM NaCl; 10 mM sodium phosphate, pH 7.0; 1.5 µM RNA; L/M = 1; Tm 59.8 to 64.0 °C
[4] = system: FM1 r(CUG)10 (FM1 CUG × 10, r10FAM), annealed (RNA, repeat, fluorescein (fam) covalently incorporated between C13 and U14 (5th CUG repeat, hairpin loop)) CUGCUGCUGCUGCUGCUGCUGCUGCUGCUG; assay: fluorescence melting of internal FAM; settings: none stated; nuclease-free water; 200 nM RNA; L/M = 1; Tm 52.2 to 54.9 °C; lower Tm at L/M > 1
[5] = system: FM1 r(CUG)10 (FM1 CUG × 10, r10FAM), annealed (RNA, repeat, fluorescein (fam) covalently incorporated between C13 and U14 (5th CUG repeat, hairpin loop)) CUGCUGCUGCUGCUGCUGCUGCUGCUGCUG; assay: fluorescence microplate titration, sigmoidal fit; settings: none stated; nuclease-free water, room temperature; 200 nM RNA; apparent
[6] = system: FM1 r(CUG)10 (FM1 CUG × 10, r10FAM), annealed (RNA, repeat, fluorescein (fam) covalently incorporated between C13 and U14 (5th CUG repeat, hairpin loop)) CUGCUGCUGCUGCUGCUGCUGCUGCUGCUG; assay: fluorometer fluorescence titration, sigmoidal fit; settings: none stated; nuclease-free water, 25 °C; 200 nM RNA; apparent; Langmuir fit 671 nM, quadratic fit 247 nM

SMILES | ΔTm [1] | binding [2] | ΔTm [3] | ΔTm [4] | Kd [5] | Kd [6]
CN[C@@H]1[C@@H](O)[C@@H](O[C@@H]2[C@@H](O)[C@H](O[C@H]3OC(CN)=CC[C@H]3N)[C@@H](N)C[C@H]2N)OC[C@]1(C)O | ~ 1.5 °C | yes | 4 °C | 2.7 °C | 0.928 µM | 0.945 µM
NC[C@@H]1O[C@H](O[C@H]2[C@@H](O)[C@H](O[C@@H]3[C@@H](O)[C@H](N)C[C@H](N)[C@H]3O[C@H]3O[C@H](CN)[C@@H](O)[C@H](O)[C@H]3N)O[C@@H]2CO)[C@H](N)[C@@H](O)[C@@H]1O | – | – | – | – | 1.054 µM | –
NC[C@H]1O[C@H](O[C@H]2[C@H](O)[C@@H](O[C@H]3O[C@H](CO)[C@@H](O)[C@H](N)[C@H]3O)[C@H](N)C[C@@H]2N)[C@H](O)[C@@H](O)[C@@H]1O | – | – | – | – | 1.555 µM | –
